According to patent publication US20110280806A1, “DYE CONJUGATE IMAGING AGENTS” (priority 2008, published 2011):

Experiment: Absorbance of Dye A vs cyanine dye Cy7 (diode array spectrophotometer)
Assay type: physicochemical
Conditions: 2.5 μM solution, DMSO diluted in PBS
Procedure: (a) Absorbance and fluorescence of Dye A vs Cyanine Dye Cy7.
0.1 to 0.2 mg vials of the dyes were dissolved initially in 100 μl DMSO and then diluted in PBS to the specified concentrations. Absorbance measurements were performed on 2.5 μM solutions, with a HP 8452A Diode array spectrophotometer. Fluorescence measurements were performed on 250 nM solutions, with a Varian Cary Eclipse Fluorescence Spectrophotometer at standardised instrument settings (600V PMT setting).

Structure (SMILES)	measured absorbance equates to (molar extinction) (at 748 nm)	measured absorbance equates to (molar extinction) (at 746 nm)
CCN1C(=CC=CC=CC=CC2=[N+](CCCCCC(=O)O)c3ccc(S(=O)(=O)O)cc3C2(C)C)C(C)(C)c2cc(S(=O)(=O)[O-])ccc21 [Cy7]	250,000 /M/cm	
CN1C2=C/C(=C/C=C/C3=CC4=[N+](C)c5ccccc5C4(C)C(C)(C)C3)CC(C)(C)C2(C)c2ccccc21 (centres unmarked) [Dye A, 4,4,4a,9-Tetramethyl-2-(3-(1E-4,4,4a,9-tetramethyl-4,4a-dihydro-3H-carbazol-2-ylidenyl)prop-1-enyl)-4,4a-dihydro-3H-carbazolium iodide]		260,000 /M/cm
